pKi: −log10 of the molar value.

One assay addresses Adenosine receptor A2a (Rattus norvegicus, UniProt P30543). The experiment in a line: biochemical.
The target in the next assay is T1, Adenosine receptor A1 (Rattus norvegicus, UniProt P25099).
T1 sequence (P25099 whole entry): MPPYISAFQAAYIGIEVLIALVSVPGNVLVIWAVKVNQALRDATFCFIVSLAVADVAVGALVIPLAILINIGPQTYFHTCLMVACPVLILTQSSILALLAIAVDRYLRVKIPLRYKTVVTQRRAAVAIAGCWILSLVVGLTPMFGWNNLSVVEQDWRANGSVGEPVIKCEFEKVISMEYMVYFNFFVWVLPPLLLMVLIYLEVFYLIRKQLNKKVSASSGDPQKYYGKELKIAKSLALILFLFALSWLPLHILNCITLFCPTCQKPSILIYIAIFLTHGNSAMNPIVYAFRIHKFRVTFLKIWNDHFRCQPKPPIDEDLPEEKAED
Kind of assay: biochemical.

Chain of Adenosine receptor A2a (P30543 whole entry): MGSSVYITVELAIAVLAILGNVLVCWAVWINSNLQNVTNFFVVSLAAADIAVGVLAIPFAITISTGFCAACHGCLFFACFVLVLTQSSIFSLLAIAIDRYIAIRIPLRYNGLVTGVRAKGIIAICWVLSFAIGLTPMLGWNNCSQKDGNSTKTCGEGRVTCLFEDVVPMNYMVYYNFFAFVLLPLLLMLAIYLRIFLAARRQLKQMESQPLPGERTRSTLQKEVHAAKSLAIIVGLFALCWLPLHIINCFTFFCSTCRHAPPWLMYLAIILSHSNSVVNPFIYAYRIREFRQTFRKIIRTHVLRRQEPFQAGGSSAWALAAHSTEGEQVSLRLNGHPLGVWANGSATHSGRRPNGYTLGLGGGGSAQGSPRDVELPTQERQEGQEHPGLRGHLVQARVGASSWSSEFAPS

`CS(=O)(=O)c1cccc(-c2cn3nc(-c4ccco4)nc3c(N)n2)c1` showed a pKi at Adenosine receptor A2a of 6.96.

At Adenosine receptor A2a, `CCOC(=O)c1cccc(-c2cn3nc(-c4ccco4)nc3c(N)n2)c1` showed a pKi of 6.43.

At Adenosine receptor A2a, `Nc1nc(-c2cccc(CO)c2)cn2nc(-c3ccco3)nc12` showed a negative-log Ki (pKi) of 6.33. This pKi and that of the compound before are within 0.2 log units of each other.

Consider `Nc1nc(-c2cccc(C(=O)O)c2)cn2nc(-c3ccco3)nc12`, for which, at Adenosine receptor A2a, the pKi was under 6.00.

Turning to `CN(C)c1ccc(-c2cn3nc(-c4ccco4)nc3c(N)n2)cc1`, at Adenosine receptor A2a, the negative-log Ki (pKi) was under 6.00.

In turn, `Nc1cccc(-c2cn3nc(-c4ccco4)nc3c(N)n2)c1` had a negative-log Ki (pKi) on Adenosine receptor A2a of 6.20.

On to `CN(C)c1cccc(-c2cn3nc(-c4ccco4)nc3c(N)n2)c1`, for which, at Adenosine receptor A2a, the pKi was 6.85. This pKi is 0.65 log units higher than that of the compound before.

With `Nc1nc(C(=O)NCCc2ccc(O)cc2)cn2nc(-c3ccco3)nc12`, the results for the pKi on Adenosine receptor A2a and at Adenosine receptor A1 were 9.00 and 6.49, respectively.

Take `CCCCNC(=O)c1cn2nc(-c3ccco3)nc2c(N)n1`: the pKi is 9.00 at Adenosine receptor A2a and 6.92 on Adenosine receptor A1.

At Adenosine receptor A2a, `Nc1nc(-c2cccnc2)cn2nc(-c3ccco3)nc12` gave a pKi of 6.34.

`Nc1nc(-c2ccc([N+](=O)[O-])cc2)cn2nc(-c3ccco3)nc12` had a pKi on Adenosine receptor A2a of under 6.00.

Consider `Nc1nc(-c2cccc(C(=O)N3CCOCC3)c2)cn2nc(-c3ccco3)nc12`, for which the negative-log Ki (pKi) was 6.62 on Adenosine receptor A2a and over 6.60 on Adenosine receptor A1.

As for `Nc1nc(-c2ccc(C(=O)NCCc3ccc(O)cc3)cc2)cn2nc(-c3ccco3)nc12`, the pKi was 6.08 at Adenosine receptor A2a and 7.44 on Adenosine receptor A1.

`NC(=O)c1cccc(-c2cn3nc(-c4ccco4)nc3c(N)n2)c1`: at Adenosine receptor A2a, the negative logarithm of the Ki (pKi) is 6.96.

As for `Nc1nc(C(=O)NCc2ccccc2)cn2nc(-c3ccco3)nc12`, the pKi at Adenosine receptor A2a is 8.70; on Adenosine receptor A1, 7.85.

For `Nc1nc(C(=O)N2CCN(c3ccncc3)CC2)cn2nc(-c3ccco3)nc12`, the pKi on Adenosine receptor A2a and at Adenosine receptor A1 was under 6.60 in each case.

In turn, `Nc1nc(-c2cccc3ccccc23)cn2nc(-c3ccco3)nc12` had a pKi on Adenosine receptor A2a of 6.38.

Turning to `Nc1nc(-c2cccc(C(=O)N3CCN(Cc4ccccc4)CC3)c2)cn2nc(-c3ccco3)nc12`, the pKi is 6.17 at Adenosine receptor A2a and under 6.60 on Adenosine receptor A1.

The compound `CCOC(=O)c1ccc(-c2cn3nc(-c4ccco4)nc3c(N)n2)cc1` gave a pKi on Adenosine receptor A2a of under 6.00.

Take `Nc1nc(-c2cccc([N+](=O)[O-])c2)cn2nc(-c3ccco3)nc12`: the pKi at Adenosine receptor A2a is 6.34.

Turning to `Nc1nc(-c2cccc(C(=O)NCCc3ccc(O)cc3)c2)cn2nc(-c3ccco3)nc12`, the pKi was 6.74 at Adenosine receptor A2a and under 6.60 at Adenosine receptor A1.

The compound `Nc1nc(-c2ccco2)cn2nc(-c3ccco3)nc12` showed a pKi at Adenosine receptor A2a of 6.40.

`Nc1nc(-c2cccc(C(F)(F)F)c2)cn2nc(-c3ccco3)nc12` gave a pKi on Adenosine receptor A2a of 6.66.

In the case of `Nc1nc(-c2ccc(C(=O)N3CCOCC3)cc2)cn2nc(-c3ccco3)nc12`, the pKi is 7.72 at Adenosine receptor A2a and 5.74 at Adenosine receptor A1.

Turning to `CC(C)NC(=O)c1cccc(-c2cn3nc(-c4ccco4)nc3c(N)n2)c1`, the negative-log Ki (pKi) on Adenosine receptor A2a is 6.85; at Adenosine receptor A1, 6.54.

For `CC(C)c1cccc(-c2cn3nc(-c4ccco4)nc3c(N)n2)c1`, at Adenosine receptor A2a, the pKi is 6.17.

Turning to `CN(C)C(=O)c1cccc(-c2cn3nc(-c4ccco4)nc3c(N)n2)c1`, the pKi at Adenosine receptor A2a was 7.15; on Adenosine receptor A1 it was 6.92.

As for `CC(=O)Nc1cccc(-c2cn3nc(-c4ccco4)nc3c(N)n2)c1`, on Adenosine receptor A2a, the pKi is 6.80.

With `Nc1nc(C(=O)N2CCOCC2)cn2nc(-c3ccco3)nc12`, the pKi at Adenosine receptor A2a and at Adenosine receptor A1 was under 6.60 each time.

In the case of `Nc1ccc(-c2cn3nc(-c4ccco4)nc3c(N)n2)cc1`, at Adenosine receptor A2a, the pKi was under 6.00.

Regarding `Nc1nc(C(=O)N2CCN(Cc3ccccc3)CC2)cn2nc(-c3ccco3)nc12`, the pKi at Adenosine receptor A2a and at Adenosine receptor A1 was under 6.60 each time.

As to `N#Cc1cccc(-c2cn3nc(-c4ccco4)nc3c(N)n2)c1`, the pKi on Adenosine receptor A2a is 6.80.

In turn, `CC(=O)c1cccc(-c2cn3nc(-c4ccco4)nc3c(N)n2)c1` had a pKi on Adenosine receptor A2a of 7.12.

In turn, `Nc1nc(-c2cncnc2)cn2nc(-c3ccco3)nc12` gave a negative logarithm of the Ki (pKi) at Adenosine receptor A2a of 6.44.

As for `Nc1nc(-c2ccc(C(=O)NCCCn3ccnc3)cc2)cn2nc(-c3ccco3)nc12`, the pKi on Adenosine receptor A2a was 6.48; on Adenosine receptor A1, under 6.60.

`Nc1nc(C(=O)NCCCc2ccccc2)cn2nc(-c3ccco3)nc12`: the negative logarithm of the Ki (pKi) at Adenosine receptor A2a is 7.55; at Adenosine receptor A1, 6.62.

Turning to `COc1cccc(-c2cn3nc(-c4ccco4)nc3c(N)n2)c1`, the pKi at Adenosine receptor A2a was 6.57.

In turn, `Nc1nc(-c2ccc(C(F)(F)F)cc2)cn2nc(-c3ccco3)nc12` gave a pKi on Adenosine receptor A2a of under 6.00.

Consider `CCN(CC)C(=O)c1cccc(-c2cn3nc(-c4ccco4)nc3c(N)n2)c1`, for which the pKi is 9.00 on Adenosine receptor A2a and 7.39 at Adenosine receptor A1.

Take `N#Cc1ccc(-c2cn3nc(-c4ccco4)nc3c(N)n2)cc1`: on Adenosine receptor A2a, the negative logarithm of the Ki (pKi) is under 6.00.

In the case of `Nc1nc(-c2cccc(C(=O)N3CCN(c4ccncc4)CC3)c2)cn2nc(-c3ccco3)nc12`, the pKi at Adenosine receptor A2a is 6.14; on Adenosine receptor A1 it was 8.52.

In turn, `Nc1nc(-c2cccc3cccnc23)cn2nc(-c3ccco3)nc12` gave a pKi at Adenosine receptor A2a of 6.60.

Turning to `CN(Cc1ccccc1)C(=O)c1cn2nc(-c3ccco3)nc2c(N)n1`, the negative logarithm of the Ki (pKi) is 7.57 at Adenosine receptor A2a and 6.80 at Adenosine receptor A1.

On Adenosine receptor A2a, `Nc1nc(-c2ccc(CO)cc2)cn2nc(-c3ccco3)nc12` had a pKi of under 6.00.

The record behind these values is ChEMBL document CHEMBL1143471, “Synthesis of [1,2,4]triazolo[1,5-a]pyrazines as adenosine A2A receptor antagonists” (Bioorg Med Chem Lett, 2005).
